Measured values: patent US20230015647A1, “INHIBITORS OF HISTONE DEMETHYLASES (PFI-63 AND PFI-90) FOR THE TREATMENT OF CANCER AND FOR THE INHIBITION OF HISTONE DEMETHYLASE IN CELLS” (The United States of America,as represented by the …, priority 2019, published 2023)
Entries after “also recorded” stand apart in the source; their conditions may differ.

Tests used:
[1] = test system: PAX3-FOXO1 fusion transcription factor; assay: RH4 ALK-Luc luciferase reporter assay (PAX3-FOXO1 super enhancer activity); assay type: cell-based, human; conditions: for Avg Absorbance @ 1 μM, ALK-Luc / Avg Absorbance @ 10 μM, ALK-Luc: RH4 ALK-Luc reporter
Procedure: The screen was performed using two derivatives of RH4 FP-RMS cells: • (1) “ALK-Luc cells”—RH4 cells expressing a pGreenFire green fluorescent protein (GFP)-luciferase reporter (SEQ ID NO: 1) controlled by the PAX3-FOXO1-dependent intronic ALK super enhancer (for reporting on PAX3-FOXO1 activity) (FIGS. 1 and 2); and • (2) “CMV-Luc cells”—control RH4 cells in which the reporter is transcribed from a constitutively active cytomegalovirus (CMV) promoter. An Example of visualization via the ALK-Luc reporter is depicted in FIG. 3.
The cells were enriched for reporter expression levels and used for assay development. A high throughput screening assay was developed after optimization of cell seeding density, length of incubation of cells prior to and post treatment with test compounds, and effect of passaging among other factors. The screen was designed to identify compounds that suppressed PAX3-FOXO1 activity without disrupting viability (at a short time points) or general transcription. The assay simultaneously monitors the function of the PAX3-FOXO1 super enhancer (also referred to as “ALK super enhancer”), general transcriptional activity as well as cell viability.
The visual summary of the screening strategy is illustrated in FIG. 4. ALK-Luc cells were seeded in both white-walled and white-bottomed 384-well plates (Perkin Elmer, Cat #6007658) for luciferase assays and in clear 384-well plates (Perkin Elmer, Cat #6007688) for viability assay (XTT reduction) by transferring 27 μL of cell suspensions (seeding 3000 cells per well) into each well. The plates were then transferred into an incubator for 18-20 h. The CMV-Luc cells were similarly seeded into white plates and incubated.
A pure compound library of 62,643 compounds consisting of synthetic and natural products described previously (Grohar et al., J Natl. Cancer Inst., 103: 962-978 (2011)) was then used in a high throughput screening campaign to identify inhibitors of PAX3-FOXO1. Stock DMSO Solutions of these compounds were used to prepare 100 μM solutions in growth medium in 384-well plates also containing 16 wells each of a positive control (Actinomycin D, Sigma, Cat #A1410) and negative control (DMSO). Screening compounds along with the positive and negative controls were added to assay plates by transferring 3 μL of the prepared 100 μM dilutions using an automated liquid handler (Agilent, Bravo). Treated plates were incubated for 24 h. At the end of this period, treated plates were allowed to equilibrate to room temperature for 30 minutes. SteadyLite Plus luciferase assay reagent powder (PerkinElmer, Cat #6066759) was reconstituted in its buffer in parallel and was also allowed to equilibrate to room temperature.
After transferring 30 μL of the luciferase assay reagent using a liquid handler, plates were further incubated at room temperature for 10 minutes. Finally, luminescence measurements were carried out using a multi-label microplate reader (BMG, Pherastar FSX) set in luminescence mode. Cell viability was assessed by adding XTT reagent (10 μL per well) in clear plates containing treated ALK-Luc cells. XTT treated plates were read using a plate reader in absorbance mode at 450 nm (PerkinElmer, Envision) after further incubation for 1 hour to allow cells to metabolize XTT to a colored formazan product. Luminescence and XTT absorbance values were normalized to the average of the negative controls on each plate and were calculated as a percentage of these controls. Performance of the screening assay was routinely monitored via calculation of Z-factor (Zhang et al., J. Biomol. Screen., 4: 67-73 (1999)) with Z′ for all plates found to be >0.7.
RH4 ALK-Luc and RH4 CMV-Luc cells were seeded into separate white-walled and bottomed 384-well plates and were incubated and treated with screen hits and epigenome compounds. The highest test concentration of these compounds (10-fold) were prepared from DMSO stock solutions via dilution in medium. […]

RH30.19luc cells = assay: CRISPR/Cas9 genome-scale loss of function time course screen (GeCKOv2, TKOv3); assay type: cell-based; conditions: compared to DMSO
Procedure: To identify specific proteins targeted by PFI-63, a genome-scale loss of function time course screen was performed in RH30.19luc cells using two CRISPR/Cas9 libraries (GeCKOv2 and TKOv3) with and without treatment with PFI-63.

rhabdomyosarcoma cells = assay: Morphological imaging of treated cells; assay type: cell-based
From the text: Among the 64 compounds identified above, 33 compounds of unknown mechanism of action were identified.

KDM3B (JMJD1B) = target: T1, KDM3B (JMJD1B) (Homo sapiens, UniProt Q7LBC6); assay: Eurofins histone lysine demethylase panel, enzymatic inhibition, substrate H3K9me1/2(3); assay type: biochemical; conditions: KDM3B (JMJD1B) enzymatic activity
T1 construct: The enzymatic activity of each of the full length protein was analyzed using known substrates; purchased Eurofins
T1 sequence (Q7LBC6 whole entry): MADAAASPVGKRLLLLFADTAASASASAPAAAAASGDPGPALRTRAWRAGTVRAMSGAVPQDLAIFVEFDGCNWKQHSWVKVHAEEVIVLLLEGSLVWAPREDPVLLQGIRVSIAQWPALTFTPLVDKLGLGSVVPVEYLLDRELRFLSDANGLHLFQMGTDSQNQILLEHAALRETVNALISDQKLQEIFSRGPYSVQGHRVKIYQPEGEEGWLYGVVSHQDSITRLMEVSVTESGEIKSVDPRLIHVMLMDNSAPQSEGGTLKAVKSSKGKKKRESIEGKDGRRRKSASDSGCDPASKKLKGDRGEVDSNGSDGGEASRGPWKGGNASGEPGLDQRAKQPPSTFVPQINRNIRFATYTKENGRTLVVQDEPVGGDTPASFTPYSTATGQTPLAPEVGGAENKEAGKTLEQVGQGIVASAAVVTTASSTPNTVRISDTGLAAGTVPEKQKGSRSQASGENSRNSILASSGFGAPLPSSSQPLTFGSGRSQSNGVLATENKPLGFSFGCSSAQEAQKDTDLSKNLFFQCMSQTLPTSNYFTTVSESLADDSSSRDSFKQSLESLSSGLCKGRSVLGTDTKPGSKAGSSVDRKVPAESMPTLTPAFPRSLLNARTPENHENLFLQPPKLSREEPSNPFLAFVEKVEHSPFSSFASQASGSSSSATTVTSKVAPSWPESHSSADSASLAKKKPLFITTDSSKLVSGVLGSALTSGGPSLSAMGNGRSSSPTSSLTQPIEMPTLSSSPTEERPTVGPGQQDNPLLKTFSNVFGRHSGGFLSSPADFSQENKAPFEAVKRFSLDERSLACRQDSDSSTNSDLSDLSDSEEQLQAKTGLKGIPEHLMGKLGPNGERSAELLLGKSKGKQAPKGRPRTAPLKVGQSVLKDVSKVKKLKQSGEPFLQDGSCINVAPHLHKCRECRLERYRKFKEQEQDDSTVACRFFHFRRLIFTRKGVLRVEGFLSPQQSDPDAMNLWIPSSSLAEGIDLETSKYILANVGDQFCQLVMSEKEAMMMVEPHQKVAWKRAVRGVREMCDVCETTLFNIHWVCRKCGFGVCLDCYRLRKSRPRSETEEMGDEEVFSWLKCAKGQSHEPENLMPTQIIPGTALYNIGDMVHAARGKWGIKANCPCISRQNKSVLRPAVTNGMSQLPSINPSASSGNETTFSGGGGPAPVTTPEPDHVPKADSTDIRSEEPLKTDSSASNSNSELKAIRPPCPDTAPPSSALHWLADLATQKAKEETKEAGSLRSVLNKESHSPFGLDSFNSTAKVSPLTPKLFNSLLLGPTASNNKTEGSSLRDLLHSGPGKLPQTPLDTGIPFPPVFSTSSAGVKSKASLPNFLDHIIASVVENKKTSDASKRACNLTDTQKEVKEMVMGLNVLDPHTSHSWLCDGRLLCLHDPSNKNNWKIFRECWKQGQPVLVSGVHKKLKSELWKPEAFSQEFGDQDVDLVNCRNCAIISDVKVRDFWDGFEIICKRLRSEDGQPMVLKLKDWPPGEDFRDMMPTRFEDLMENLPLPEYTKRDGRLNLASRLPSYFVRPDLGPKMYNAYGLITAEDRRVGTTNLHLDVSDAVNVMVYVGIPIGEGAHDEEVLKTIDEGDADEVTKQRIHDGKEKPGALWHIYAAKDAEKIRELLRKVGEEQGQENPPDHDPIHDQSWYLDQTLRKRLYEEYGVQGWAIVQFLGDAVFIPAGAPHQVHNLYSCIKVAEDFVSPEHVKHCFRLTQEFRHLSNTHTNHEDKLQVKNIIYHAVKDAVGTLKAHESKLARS
Procedure: PFI-63 was sent to Eurofins (www.eurofins.com) for direct enzymatic inhibition activity analysis. The enzymatic activity of each of the full length protein was analyzed using known substrates such as methylated lysines. The proteins were treated with various concentrations of PFI-63. As described above, PFI-90 inhibitory activity was determined by Eurofins using enzymatic inhibition activity analysis of a panel of histone demethylases.

[2] = test system: truncated KDM3B catalytic domain; assay: WaterLOGSY NMR binding assay; conditions: 300 μM; in the presence and in the absence of 2-OG
From the text: (§1) A WaterLOGSY assay and a Carr-Purcell Meiboom-Gill (CPMG) based assay were used to investigate protein-ligand binding affinity between PFI-90 and a truncated KDM3B catalytic domain.
In traditional proton NMR experiments, a series of peaks are generated that represent the structure of a solitary small molecule, whereas the WaterLOGSY experiment examines the behavior of a small molecule's peaks in the presence of a potential target. This is achieved by observing differences in interaction between a small molecule interacting with water co-occupying a binding cleft on a target as compared to water dispersed freely in solution. The experiment then depicts the ratio of bound to unbound small molecule by phasing proton NMR spectra on the X-axis in opposing directions depending on the magnitude of that ratio (i.e., increasing ratios above 1 will phase positively, decreasing ratios below 1 will phase negatively).

[3] = test system: truncated KDM3B catalytic domain; assay: CPMG relaxation editing NMR binding assay
From the text: as §1
CPMG (Carr-Purcell-Meiboom-Gill) Relaxation Editing Proton NMR is another drug-discovery NMR experiment that may be used in conjunction with WaterLOGSY to orthogonally validate the presence of a reversible binding interaction of mild to high affinity from a small molecule to a label-free target. In contrast to WaterLOGSY, all peaks are phased above the X-axis. Instead, this experiment filters out the proportion of peak height that is contributed from the quantity of small molecule bound to a target of high molecular weight (e.g., a protein). Once the attenuation of peak height is equivalent to a 20% reduction, the compound is said to bind, with an increasing ratio of bound to unbound small molecules manifesting in increasing signal attenuation.

| SMILES | suppression of PAX3-FOXO1 super enhancer activity [1] | Avg Absorbance @ 1 μM, ALK-Luc [1] | Avg Absorbance @ 10 μM, ALK-Luc [1] | synthetic lethality of targets of histone lysine demethylases (RH30.19luc cells) | cell morphology (rhabdomyosarcoma cells) | IC50 (KDM3B (JMJD1B)) [nM] | binding (WaterLOGSY) [2] | peak height attenuation (CPMG) ([3]; 1 of 9 peaks) [%] | peak height attenuation (CPMG) ([3]; 3 of 9 peaks) [%] | peak height attenuation (CPMG) ([3]; 5 out of 9 PFI-90 peaks) | binding (CPMG) ([3]; in the presence and absence of 2-OG) |
| --- | --- | --- | --- | --- | --- | --- | --- | --- | --- | --- | --- |
| Cc1cc(C)cc(C(=O)NNC(=O)c2ccccn2)c1 [PFI-63] | significant suppression | 91.4 | 40.1 | synthetically lethal | elongation of cells | 2000 to 3000 | – | – | – | – | – |
| O=C(NNc1ccccn1)c1ccccn1 [PFI-90] | – | 55.9 | 34.0 | – | – | – | found to bind; also recorded: binds | 70 | 50 | Complete/near complete | Strong binding |
